Consider 25 compounds from article PMC7504216 (Molecules, 2020).

Like-named read-outs stand apart in the source and are kept apart here.

Experiment [1] relates to BChE. To be noted: cited from earlier work; for BChE inhibition: 25 μg/mL (sphondin 115.7 μM, pimpinellin 101.5 μM), from Heracleum platytaenium.
The target in experiment [2] is T1, recombinant human MAO-A (Homo sapiens, UniProt P21397).
T1 construct: purchased Sigma-Aldrich
T1 sequence (P21397 1-527): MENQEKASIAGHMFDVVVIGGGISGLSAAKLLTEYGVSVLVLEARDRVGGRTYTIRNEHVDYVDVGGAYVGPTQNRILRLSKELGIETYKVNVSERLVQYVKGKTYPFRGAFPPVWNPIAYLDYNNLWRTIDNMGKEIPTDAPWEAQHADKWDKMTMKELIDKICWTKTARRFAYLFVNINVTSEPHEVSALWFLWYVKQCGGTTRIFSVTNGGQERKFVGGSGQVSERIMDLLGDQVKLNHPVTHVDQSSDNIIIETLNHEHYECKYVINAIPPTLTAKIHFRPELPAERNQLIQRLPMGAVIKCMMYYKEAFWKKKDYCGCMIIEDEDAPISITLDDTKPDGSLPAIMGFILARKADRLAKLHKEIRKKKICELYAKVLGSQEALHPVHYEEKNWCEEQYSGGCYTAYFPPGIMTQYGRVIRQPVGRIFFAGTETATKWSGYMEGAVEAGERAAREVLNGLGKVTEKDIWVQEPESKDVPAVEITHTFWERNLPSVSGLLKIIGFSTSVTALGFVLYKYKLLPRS
Description: biochemical. The class given is biochemical. To be noted: for remaining activity at 10 µM: read-out: Residual Activity at 10 µM (%) MAO-A.

Experiment [3] has as its target T2, recombinant human MAO-B (Homo sapiens, UniProt P27338).
T2 construct: purchased Sigma-Aldrich
T2 sequence (P27338 1-520): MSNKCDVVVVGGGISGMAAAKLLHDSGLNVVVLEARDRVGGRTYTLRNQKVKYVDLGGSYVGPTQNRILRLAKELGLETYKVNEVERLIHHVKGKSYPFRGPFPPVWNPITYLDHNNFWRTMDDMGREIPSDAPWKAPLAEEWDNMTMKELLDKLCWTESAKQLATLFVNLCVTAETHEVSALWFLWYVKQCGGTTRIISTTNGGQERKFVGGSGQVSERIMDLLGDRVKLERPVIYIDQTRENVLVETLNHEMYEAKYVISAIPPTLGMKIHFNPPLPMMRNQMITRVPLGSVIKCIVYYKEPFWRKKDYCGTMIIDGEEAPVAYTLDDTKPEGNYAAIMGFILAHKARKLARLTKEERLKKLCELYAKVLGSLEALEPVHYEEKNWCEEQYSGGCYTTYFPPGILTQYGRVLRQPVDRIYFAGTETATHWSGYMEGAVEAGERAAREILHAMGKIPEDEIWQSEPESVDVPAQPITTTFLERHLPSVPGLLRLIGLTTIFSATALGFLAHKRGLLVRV
Description: biochemical. The experiment is classed as biochemical. To be noted: for remaining activity at 10 µM: read-out: Residual Activity at 10 µM (%) MAO-B.

Experiment [4] has as its target T3, AChE from Electrophorus electricus (Electrophorus electricus, UniProt O42275).
T3 construct: purchased Sigma-Aldrich
As to the kind of experiment: AChE inhibition assay (Ellman, ATCI). The experiment is classed as biochemical. To be noted: for remaining activity at 10 µM: read-out: Residual Activity at 10 µM (%) AChE; for Residual Activity at 10 µM (%) AChE: inhibitor 10 µM, mean ± SE, triplicate.

Experiment [5] concerns the target T4, BChE from equine serum (Equus caballus, UniProt P81908).
T4 construct: BChE from equine serum; purchased Sigma-Aldrich; host or cells: equine serum
As to the kind of experiment: BChE inhibition assay (Ellman, BTCI) and kinetics. The class given is biochemical. To be noted: for remaining activity at 10 µM: read-out: Residual Activity at 10 µM (%) BChE; for Residual Activity at 10 µM (%) BChE: inhibitor 10 µM, mean ± SE, triplicate.

For experiment [6], the target named is T4, BChE from equine serum. Description: Reversibility of BChE inhibition by dialysis. The experiment is classed as biochemical.
Experiment [7] addresses T4, BChE from equine serum. As to the kind of experiment: Reversibility of BChE inhibition by dilution method. The experiment is classed as biochemical.
For experiment [8], the target named is T2, recombinant human MAO-B. As to the kind of experiment: Reversibility of MAO-B inhibition by dialysis. The experiment is classed as biochemical.
For experiment [9], the system named is MAO-B. Also on record: method as in PMID 28634060. The note with it: cited from earlier work.
Experiment [10] deals with AChE. The note with it: cited from earlier work.
Setting [11] is: inhibitor 10 µM, mean ± SE, triplicate.

T4 sequence (P81908 whole entry): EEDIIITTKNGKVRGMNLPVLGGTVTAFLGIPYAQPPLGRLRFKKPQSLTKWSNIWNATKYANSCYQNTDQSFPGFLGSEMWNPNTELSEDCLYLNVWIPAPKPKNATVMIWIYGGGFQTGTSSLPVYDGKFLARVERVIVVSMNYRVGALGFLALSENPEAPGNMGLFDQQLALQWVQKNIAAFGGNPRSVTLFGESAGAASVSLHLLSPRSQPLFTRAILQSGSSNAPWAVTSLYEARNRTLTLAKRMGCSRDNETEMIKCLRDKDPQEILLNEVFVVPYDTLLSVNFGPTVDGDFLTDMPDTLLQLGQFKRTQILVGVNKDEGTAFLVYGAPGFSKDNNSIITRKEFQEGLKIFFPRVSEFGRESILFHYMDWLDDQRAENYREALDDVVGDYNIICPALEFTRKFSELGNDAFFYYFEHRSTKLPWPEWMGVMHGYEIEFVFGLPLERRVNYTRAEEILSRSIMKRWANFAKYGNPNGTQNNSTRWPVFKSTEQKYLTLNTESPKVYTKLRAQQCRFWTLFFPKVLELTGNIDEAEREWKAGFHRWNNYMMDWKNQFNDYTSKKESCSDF
T3 sequence (O42275 24-633): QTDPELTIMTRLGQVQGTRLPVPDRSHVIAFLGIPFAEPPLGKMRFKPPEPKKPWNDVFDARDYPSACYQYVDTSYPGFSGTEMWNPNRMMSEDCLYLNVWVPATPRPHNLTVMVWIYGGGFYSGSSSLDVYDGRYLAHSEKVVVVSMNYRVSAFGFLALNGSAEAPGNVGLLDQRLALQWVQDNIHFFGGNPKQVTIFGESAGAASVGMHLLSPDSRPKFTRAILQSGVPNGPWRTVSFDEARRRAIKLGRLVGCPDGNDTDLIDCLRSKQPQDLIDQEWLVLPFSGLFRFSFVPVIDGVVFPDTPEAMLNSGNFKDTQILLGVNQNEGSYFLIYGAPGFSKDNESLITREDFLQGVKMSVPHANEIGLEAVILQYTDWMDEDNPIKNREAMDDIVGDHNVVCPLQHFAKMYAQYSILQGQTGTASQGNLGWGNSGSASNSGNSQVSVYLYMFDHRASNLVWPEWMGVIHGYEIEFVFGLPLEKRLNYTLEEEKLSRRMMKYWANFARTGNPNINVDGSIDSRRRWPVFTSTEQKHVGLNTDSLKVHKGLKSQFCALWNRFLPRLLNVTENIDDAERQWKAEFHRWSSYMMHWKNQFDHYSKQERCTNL

One may read the IC50 as the concentration needed to halve the response being measured. As to `CC(=O)O[C@@H]1CCC(C)(C)c2ccc3c(c21)C(=O)C(=O)C1=C3OC[C@@H]1C` [(1R,15R)-1-acetoxycryptotanshinone], the IC50 in experiment [1] is 2.4 µM.

In general, Ki refers to the equilibrium dissociation constant of an inhibitor or competing ligand from its target. A higher Ki goes with lower affinity. Turning to `COc1c(CC=C(C)C)c(O)cc2oc(=O)c3c4ccc(O)cc4oc3c12` [GC, glycyrol], in experiment [2], the IC50 was over 40 µM and the remaining activity at 10 µM came out at 70.5 ± 1.61%. For the same compound, in experiment [3], the IC50 turned out to be 29.5 ± 0.67 µM and the remaining activity at 10 µM amounted to 74.2 ± 3.46%. For the same compound, in [4], the IC50 stood at 14.8 ± 0.19 µM and the remaining activity at 10 µM is 46.1 ± 4.4%. Further, in [5], inhibition was half-maximal at 7.22 ± 0.37 µM (IC50), affinity was put at a Ki of 4.47 µM, the “selectivity index (SI) for BChE with respect to AChE” value amounted to 2.0 and the remaining activity at 10 µM was 44.6 ± 5.36%. Also, in [5] (Lineweaver-Burk plots), the “mode of BChE inhibition” value is “reversible, noncompetitive inhibitor”. For the same compound, the “Residual BChE activity, undialyzed (AU)” value in experiment [6] (2 × IC50 (GC […]; tacrine 0.03 µM), 30 min preincubation) was found to be 34.6%. Moreover, the “Residual BChE activity, dialyzed (AD)” value in experiment [6] (2 × IC50 (GC […]; tacrine 0.03 µM), 6 h dialysis) amounted to 58.4%. Also, the “reversibility of BChE inhibition” value in experiment [6] (dialysis and dilution methods) is given as “reversible inhibitor”. Also, the “residual BChE activity, preincubated at 50 × IC50 then diluted to 1 × IC50” value in experiment [7] (15 min preincubation, after dilution) was found to be 40.1%. The “residual BChE activity, control at 1 × IC50 (before dilution)” value in experiment [7] (GC at 1 × IC50) stood at 51.1%. For the same compound, the “residual BChE activity at 50 × IC50” value in experiment [7] (GC at 50 × IC50) was determined as 10.3%.

With `CC1(C)[C@@H](O)CC[C@]2(C)[C@H]3C(=O)C=C4[C@@H]5C[C@@](C)(C(=O)O)CC[C@]5(C)CC[C@@]4(C)[C@]3(C)CC[C@@H]12` [Glycyrrhetinic acid, glycyrrhetinic acid], the IC50 in [2] and in [3] was over 40 µM throughout. Moreover, the remaining activity at 10 µM in experiment [2] (setting [11]) came out at 96.3 ± 2.64%; in [3] (setting [11]) it was 84 ± 2.16%; in experiment [4], 97.3 ± 1.61%; in experiment [5], 95 ± 4.12%.

In the case of `CC1(C)[C@@H](O[C@H]2O[C@H](C(=O)O)[C@@H](O)[C@H](O)[C@H]2O[C@@H]2O[C@H](C(=O)O)[C@@H](O)[C@H](O)[C@H]2O)CC[C@]2(C)[C@H]3C(=O)C=C4[C@@H]5C[C@@](C)(C(=O)O)CC[C@]5(C)CC[C@@]4(C)[C@]3(C)CC[C@@H]12` [Glycyrrhizin, glycyrrhizin], the IC50 in experiment [2] and in [3] was over 40 µM throughout. Besides, the remaining activity at 10 µM in experiment [2] (setting [11]) was determined as 95.8 ± 3.3%; in experiment [3] (setting [11]), 93.1 ± 4.32%; in [4], 97.7 ± 2.14%; in experiment [5] it was 82.3 ± 7.95%.

Turning to `O=C(/C=C/c1ccc(O[C@@H]2O[C@H](CO)[C@@H](O)[C@H](O)[C@H]2O)cc1)c1ccc(O)cc1O` [Isoliquiritin, isoliquiritin], the IC50 in [2], in experiment [3], in experiment [4] and in [5] was over 40 µM throughout. In addition, the remaining activity at 10 µM in experiment [2] was determined as 81.8 ± 1.61%; in experiment [3], 75.4 ± 2.27%; in experiment [4], 69.9 ± 2.2%; in experiment [5], 91.9 ± 7.16%.

As for `O=C1C[C@@H](c2ccc(O)cc2)Oc2cc(O)ccc21` [LG, Liquiritigenin], the IC50 in experiment [2] is 0.27 ± 0.041 µM; in experiment [4], over 40 µM; in [5], over 40 µM. Further, the remaining activity at 10 µM amounted to 0.46 ± 1.6% in experiment [2], 0% in experiment [3], 95.3 ± 3.59% in experiment [4] and 82.5 ± 0.26% in [5]. For the same compound, the “mode of MAO-B inhibition” value in experiment [3] (Lineweaver-Burk plots) is recorded as “reversible competitive inhibitor”. In addition, the “reversibility of MAO-B inhibition” value in experiment [8] is recorded as “reversibly inhibited”.

As for `O=C1C[C@@H](c2ccc(O[C@@H]3O[C@H](CO)[C@@H](O)[C@H](O)[C@H]3O)cc2)Oc2cc(O)ccc21` [Liquiritin, liquiritin], the IC50 in experiment [2], in [3], in [4] and in experiment [5] was over 40 µM throughout. In addition, the remaining activity at 10 µM is 93.5% in experiment [2], 90.2 ± 0.56% in [3], 93.5 ± 5.12% in experiment [4] and 95.5 ± 4.67% in experiment [5].

On to `COc1ccc(-c2cc(=O)c3c(O)cc(O)cc3o2)cc1` [acacetin], for which, in [9], the IC50 is 0.17 µM.

For the compound `COc1cc2c(cc1O)C[C@H]1c3c(cc(O)c(OC)c3-2)CCN1C` [boldine], the concentration for half-maximal inhibition (IC50) in experiment [1] was 321 µM.

Consider `COc1ccc(CCCc2ccc(O)cc2)c(O)c1` [broussonin A], for which, in experiment [1], the IC50 was 7.5 µM.

Take `COc1ccc([C@@H]2CC(=O)c3c(O)cc(O[C@@H]4O[C@H](CO[C@@H]5O[C@@H](C)[C@H](O)[C@@H](O)[C@H]5O)[C@@H](O)[C@H](O)[C@H]4O)cc3O2)cc1O` [hesperidin]: the IC50 in experiment [10] is 0.00345 µM.

As for `CC(C)=CCC[C@]1(C)[C@@H](CC=C(C)C)C[C@@]2(CC=C(C)C)C(=O)[C@]1(C(=O)C(C)C)C(=O)C(CC=C(C)C)=C2O` [hyperforin], the IC50 in experiment [1] is 142 µM.

With `Cc1cc2c(cc(=O)c1O)[C@@]1(CO)CCCC(C)(C)[C@@H]1CC2` [isograndifoliol], the IC50 in experiment [1] is 0.9 µM.

Turning to `CCC(C)C(=O)c1c(O)c2c(c3c(-c4ccccc4)cc(=O)oc13)OC(C)(CCC=C(C)C)C=C2` (stereo not shown) [mesuagenin B], the IC50 in [10] (from Mesua elegans) was 0.7 µM.

`CC(C)=CCc1c(O)ccc2ccc(=O)oc12` [osthenol]: the IC50 in experiment [10] (from Angelica pubescens) was 25.3 µM.

As to `COc1c(OC)c2occc2c2oc(=O)ccc12` [pimpinellin], the BChE inhibition in [1] is reported as 78.02%.

For `COc1cc2ccc(=O)oc2cc1O` [scopoletin], in [1], the IC50 is 9.11 µM.

In the case of `COc1cc2ccc(=O)oc2c2ccoc12` [sphondin], in [1], the BChE inhibition is 63.69%.

With `COc1c2occc2cc2ccc(=O)oc12` [xanthotoxin], the IC50 in [10] (from Ferula lutea) is 0.76 µM.

As to cremaphenanthrene F, the IC50 in experiment [1] was 14.6 µM.

As to hyuganin C, in experiment [1], the IC50 is 38.9 µM.

In the case of isoliquiritin apioside, the “Residual Activity at 10 µM (%) MAO-A” value in experiment [2] (setting [11]) worked out at 86.6 ± 3.27%. Besides, the “Residual Activity at 10 µM (%) MAO-B” value in [3] (setting [11]) is listed as 80.3 ± 5.57%. Also, in experiment [4], the “Residual Activity at 10 µM (%) AChE” value was found to be 93.5 ± 3.07%. The “Residual Activity at 10 µM (%) BChE” value in experiment [5] stood at 95.6 ± 0.88%.

Take liquiritin apioside: the “Residual Activity at 10 µM (%) MAO-A” value in experiment [2] (setting [11]) is 86.9 ± 2.41%. In addition, the “Residual Activity at 10 µM (%) MAO-B” value in [3] (setting [11]) is 94.8 ± 0.57%. Also, the “Residual Activity at 10 µM (%) AChE” value in [4] is 63.5 ± 2.56%. Further, the “Residual Activity at 10 µM (%) BChE” value in experiment [5] worked out at 97.6 ± 0.93%.

For sagachromanol I, the IC50 in experiment [1] is 10.8 µM.

As to tannic acid, in [10], the IC50 is 0.087 µM.
